From US20210338692A1, “A 19-NOR C3,3-DISUBSTITUTED C21-N-PYRAZOLYL STEROID AND METHODS OF USE THEREOF” (SAGE THERAPEUTICS, INC., priority 2018, published 2021)

Tests used:
subjects with MDD = experiment: Earlier clinical studies of Compound 1 in subjects with MDD (Phase 2 study, previous clinical trials)
[1] = system: female subjects diagnosed with severe postpartum depression; experiment: Placebo-controlled study of Compound 1 in postpartum depression (HAM-D, MADRS, HAM-A, CGI-I); assay type: in vivo, human; settings: 30 mg once a day for 15 days
Description: Compound 1 was investigated for use in subjects with depression. Female subjects (18-65 years old) diagnosed with severe postpartum depression (PDD) with a HAM-D total score of greater than or equal to 26 at screening and Day 1 were used in the investigation. The subjects were dosed once per day with capsules containing 30 mg of Compound 1. The dose could be adjusted to capsules containing 20 mg of Compound 1 if the 30 mg dose was not tolerated. Subjects not dosed with Compound 1 were dosed with a placebo. In total, 78 subjects were treated with Compound 1 at 30 mg and 73 subjects were treated with placebo.
Assuming a 2-sided test at an alpha level of 0.05, a sample size of approximately 65 evaluable subjects per treatment group provided 90% power to detect a placebo-adjusted treatment difference of approximately 4 points in the primary endpoint, change from baseline in HAM-D total score at Day 15 assuming standard deviation (SD) of 7 points. The change from baseline in the HAM-D total score was analyzed using a mixed effects model for repeated measures (MMRM). The model included the change from baseline at each visit as the dependent variable. The main comparison was (difference in least mean square [LSMEAN]) between Compound 1 Capsules and placebo at the 15-day timepoint. […]

[2] = system: synaptic and extrasynaptic GABAA receptors; settings: cited from earlier work

C[C@@]1(O)CC[C@H]2[C@H](CC[C@@H]3[C@@H]2CC[C@]2(C)[C@@H](C(=O)Cn4cc(C#N)cn4)CC[C@@H]32)C1 [Compound 1]
efficacy and tolerability of the dose level (subjects with MDD; 30 mg per day, Phase 2 study in subjects with MDD): efficacious and well-tolerated
subjects with HAM-D score of 16 to 21 among those achieving remission or response at Day 15 (subjects with MDD; Day 42): 18.2%
subjects with HAM-D≥22 among those achieving remission or response at Day 15 (subjects with MDD; Day 42): 6.1%
adverse effect when administered in the morning (subjects with MDD; previous clinical trials, administered in the morning): sedation/somnolence observed
tolerability when given in the evening (subjects with MDD; previous clinical trials, given in the evening): improved tolerability
overall efficacy in postpartum depression compared to placebo [1]: effective at treating postpartum depression
mode of action at GABAA receptors [2]: positive allosteric modulator of GABAA receptors
